A short description of data set [1]: Metabolic stability of compound in rat liver microsome assessed as half life at 1 uM measured upto 45 mins by LCMS analysis. The class given is ADME, microsomes. Particulars: for t1/2: microsomes, 0.75 h, 1 µM. For orientation: Liver microsomes are vesicles of endoplasmic reticulum, rich in cytochrome P450 enzymes.
For data set [2], the system named is MV4-11. Description: Anti-proliferative activity against human MV4-11 cells assessed as inhibition of cell proliferation incubated for 5 days by Cell Titre Glo luminescent assay. In kind it is functional. Particulars: time 5 day.
Data set [3] concerns K562. Nature of the data set: Anti-proliferative activity against human K562 cells assessed as inhibition of cell proliferation incubated for 5 days by Cell Titre Glo luminescent assay. In kind it is functional. Particulars: time 5 day.
A short description of data set [4]: Clearance in CD-1 mouse at 3 mg/kg, iv measured 0.083 to 24 hrs post-treatment by LC-MS/MS analysis. The class given is ADME, organism-based. Particulars: in vivo, time 0.083-24 hrs.
The subject of data set [5] is MOLM-13. Nature of the data set: Anti-proliferative activity against human MOLM-13 cells assessed as inhibition of cell proliferation incubated for 5 days by Cell Titre Glo luminescent assay. The class given is functional. Particulars: time 5 day.
A short description of data set [6]: Metabolic stability of compound in rat liver microsome assessed as intrinsic clearance at 1 uM measured upto 45 mins by LCMS analysis. In kind it is ADME, microsomes. Particulars: for CLH: microsomes, 0.75 h, 1 µM.
The nature of data set [7]: AUC (0 to infinity) in CD-1 mouse at 3 mg/kg, iv measured 0.083 to 24 hrs post-treatment by LC-MS/MS analysis. In kind it is ADME, organism-based. Further details: time upper 24 hrs, time lower 0.083 hrs, dose 3 mg/kg, route iv. Particulars: in vivo; for AUC(0-inf): CD-1, mouse; for AUC: mouse.
Data set [8] in a line: Volume of distribution at steady state in CD-1 mouse at 3 mg/kg, iv measured 0.083 to 24 hrs post-treatment by LC-MS/MS analysis. In kind it is ADME, organism-based. Particulars: in vivo, time 0.083-24 hrs; for Vd: CD-1, mouse, read-out: Vdss; for Vdss: mouse, iv, 3 mg/kg.
The nature of data set [9]: Cmax in CD-1 mouse at 10 mg/kg, po measured 0.083 to 24 hrs post-treatment by LC-MS/MS analysis. The class given is ADME, organism-based. Further details: time lower 0.083 hrs, dose 10 mg/kg, time upper 24 hrs, route po. Particulars: in vivo.
Data set [10] in a line: AUC (0 to infinity) in CD-1 mouse at 10 mg/kg, po measured 0.083 to 24 hrs post-treatment by LC-MS/MS analysis. In kind it is ADME, organism-based. Details: dose 10 mg/kg, time upper 24 hrs, time lower 0.083 hrs, route po. Particulars: in vivo; for AUC(0-inf): CD-1, mouse.
Data set [11] in a line: Oral bioavailability in CD-1 mouse at 10 mg/kg measured 0.083 to 24 hrs post-treatment by LC-MS/MS analysis. The class given is ADME, organism-based. Particulars: in vivo, time 0.083-24 hrs; for bioavailability: CD-1, mouse.
Data set [12] can be described thus: Kinetic solubility of compound in PBS at pH 7.4 at 100 uM incubated for 1 hr by UV-visible spectroscopy analysis. In kind it is physicochemical. Particulars: for solubility kinetic at 1 h, 100 µM: PBS, pH 7.4, read-out: Kinetic_solubility.
A short description of data set [13]: Half life in CD-1 mouse at 10 mg/kg, po measured 0.083 to 24 hrs post-treatment by LC-MS/MS analysis. The class given is ADME, organism-based. Particulars: in vivo, time 0.083-24 hrs; for half-life: CD-1, mouse.
Data set [14] addresses Histone-lysine N-methyltransferase 2A/WDR5 (Homo sapiens, UniProt P61964). Nature of the data set: Inhibition of MLL1-WDR5 (unknown origin) interaction using 10mer-Thr-FAM as substrate by fluorescence polarization based competitive binding assay. In kind it is protein assay. (Fluorescence polarisation rises when a labelled molecule tumbles more slowly, as on binding a larger partner.)

Data set [15] has as its system MV4-11. Nature of the data set: Anti-proliferative activity against human MV4-11 cells harboring MLL fusion protein assessed as inhibition of cell viability treated for 72 hrs by CCK-8 assay. Particulars: MV4-11, 72 h. The class given is functional, cell-based.
Data set [16] concerns the target T1, WD repeat-containing protein 5 (Homo sapiens, UniProt P61964). Nature of the data set: Competitive binding affinity to N-terminal 6xHis-SUMO-tagged human WDR5 (22 to 334 residues) expressed in Escherichia coli BL21-Gold (DE3) cells assessed as inhibition constant using 10-mer-Thr-FAM peptide as substrate incubated for 1 hr by Lantha Screen based TR-FRET assay. Background: TR-FRET usually uses a lanthanide donor and a delayed reading to cut background.

Data set [17] has as its target T1, WD repeat-containing protein 5. Nature of the data set: Inhibition of N-terminal 6xHis-SUMO-tagged human WDR5 (22 to 334 residues) expressed in Escherichia coli BL21-Gold (DE3) cells assessed as inhibition constant incubated for 1 hr by TR-FRET assay.
Data set [18] in a line: Kinetic aqueous solubility of compound at pH 7.4. Particulars: buffer. The class given is physicochemical.
Data set [19] in a line: Effective permeability of compound in PBS at pH 7.4 at 100 uM incubated for 5 hrs by PAMPA assay. Particulars: pH 7.4, 5 h. In kind it is ADME.
Data set [20] is described as follows: Acute toxicity in CD-1 mouse assessed as reduced locomotive activity at 3 mg/kg, iv measured 0.083 to 24 hrs post-treatment by LC-MS/MS analysis. The class given is organism-based. Particulars: in vivo, time 0.083-24 hrs.
The nature of data set [21]: Acute toxicity in CD-1 mouse assessed as lowered body temperature at 3 mg/kg, iv measured 0.083 to 24 hrs post-treatment by LC-MS/MS analysis. In kind it is organism-based. Particulars: in vivo, time 0.083-24 hrs.
Data set [22] can be described thus: Acute toxicity in CD-1 mouse assessed as lethality at 3 mg/kg, iv measured 0.083 to 24 hrs post-treatment by LC-MS/MS analysis. The class given is organism-based. Particulars: in vivo, time 0.083-24 hrs.
Data set [23] is described as follows: Clearance in CD-1 mouse at 3 mg/kg, iv measured 0.083 to 24 hrs post-treatment by LC-MS/MS analysis. Particulars: in vivo, BLD = below limit of detection.
For data set [24], the target named is T1, WD repeat-containing protein 5. Description: Inhibition of 5- FAM labeled tracer binding to N-terminal His6-SUMO-tagged WDR5 (24 to 334 residues) (unknown origin) expressed in Escherichia coli Rosetta 2 (DE3) cells incubated for 3 hrs by fluorescence polarization based competitive binding assay.

≈ marks a conversion by molar mass, not a printed value.

In the case of `CCn1cc(-c2cc(Cn3ccnc3C)cc3c2CCN([C@@H](C)c2cc(OC)ccn2)C3=O)c(C(F)(F)F)n1` (stereo in doubt; 38), the half-life (as a rule, the time needed for the level to fall by half in the phase considered) at 1 µM in [1] (liver microsomes) was found to be 0.367 h. For the same molecule, the GI50 (commonly the concentration giving 50% growth inhibition) in data set [2] (120 h) came out at 9.7 nM; in data set [3] (120 h), 1900 nM; in [5] (120 h), 19 nM. In addition, the clearance – broadly, a measure of how efficiently the substance is removed, as volume per time – in [4] was 76 mL/min/kg. Also, in data set [6] (liver microsomes, read-out: CLH), the microsomal CLint at 1 µM turned out to be 31 µL/min/mg. Also, the AUC(0-inf) (usually total exposure, with the tail of the curve extrapolated) is 707 ng·h/mL in data set [7] and 1710 ng·h/mL in [10]. Moreover, the Vd in [8] was 2.3 L/kg. Also, the Cmax (commonly the highest concentration seen after dosing) in data set [9] (CD-1, mouse, read-out: Cmax) came to 2010 ng/mL. In addition, the bioavailability (as a rule, dose-corrected exposure relative to a reference, in per cent) in data set [11] came to 73%. Moreover, the solubility kinetic at 1 h, 100 µM in data set [12] was 86 µM (≈ 46.3 µg/mL).
As to `CCn1cc(-c2cc(Cn3ccnc3)cc3c2CCN([C@@H](c2cc(OC)ccn2)C2CC2)C3=O)c(C(F)(F)F)n1`, the GI50 turned out to be 13 nM in data set [2] (Homo sapiens, MV4-11, 120 h); 3700 nM in [3] (Homo sapiens, K562, 120 h); 27 nM in data set [5] (Homo sapiens, MOLM-13, 120 h). Besides, the clearance in data set [4] came to 26 mL/min/kg. The total exposure AUC(0-inf) in [7] came to 1950 ng·h/mL; in [10], 3980 ng·h/mL. Also, the Vd in data set [8] amounted to 1.6 L/kg. The Cmax in data set [9] (CD-1, mouse, read-out: Cmax) turned out to be 2080 ng/mL. The molecule further gave a half-life in [13] of 1.3 h. The molecule also had a bioavailability in data set [11] of 61%. Moreover, the solubility kinetic at 1 h, 100 µM in data set [12] was determined as 60 µM (≈ 33 µg/mL).
On to `CN1CCN(c2cc(F)c(-c3ccc(NC(=O)N(C)C)cc3)cc2Nc2ncnc(Cl)c2N)CC1`, for which the IC50 (in general, the concentration that gives 50% inhibition) was found to be 29 nM in data set [14] and 12600 nM in data set [15].
In the case of `CCn1cc(-c2cc(Cn3ccnc3C)cc3c2CCN([C@@H](c2cc(OC)ccn2)C2CC2)C3=O)c(C(F)(F)F)n1`, the GI50 in data set [2] (Homo sapiens, MV4-11, 120 h) is 15 nM; in data set [3] (Homo sapiens, K562, 120 h), 2600 nM; in data set [5] (Homo sapiens, MOLM-13, 120 h) it was 36 nM. The clearance in [4] is 41 mL/min/kg. In addition, the results for the total exposure AUC(0-inf) in data set [7] and in data set [10] were 1240 ng·h/mL and 508 ng·h/mL, respectively. For the same molecule, in data set [8], the Vd was 1.6 L/kg. Besides, the Cmax in data set [9] (CD-1, mouse, read-out: Cmax) amounted to 652 ng/mL. This molecule showed a half-life in [13] of 1.4 h. Besides, the bioavailability in [11] was found to be 12%. The solubility kinetic at 1 h, 100 µM in data set [12] was found to be 65 µM (≈ 36.7 µg/mL).
Take `CCn1cc(-c2cc(Cn3ccnc3C)cc3c2CCN([C@@H](C)c2cc(OC)ccn2)C3=O)c(C(F)(F)F)n1` (stereo in doubt; 34): the t1/2 in data set [1] was found to be 0.2 h; in data set [13] (mouse, po, 10 mg/kg) it was 1.2 h. For the same molecule, the GI50 was determined as 11 nM in data set [2] (Homo sapiens, MV4-11, 120 h); 2200 nM in [3] (Homo sapiens, K562, 120 h); 26 nM in data set [5] (Homo sapiens, MOLM-13, 120 h). Moreover, the Ki (as a rule, the equilibrium dissociation constant of an inhibitor or competing ligand from its target) in [16] is less than 0.02 nM. Further, the CLH in [6] came out at 60 µL/min/mg. Besides, the AUC (in general, the area under the concentration-time curve, a measure of exposure) came to 429 ng·h/mL in data set [7] and 397 ng·h/mL in data set [10] (mouse). For the same molecule, the Vdss (in general, the apparent volume that relates the amount in the body to the concentration in plasma or blood) in data set [8] turned out to be 3.8 L/kg. The molecule further returned a Cmax in [9] (mouse) of 279 ng/mL. For the same molecule, the F in [11] (mouse, po, 10 mg/kg) was found to be 28%. In [12] (buffer, pH 7.4, 1 h, 100 µM), this molecule came in with a Kinetic_solubility of 80 µM.
Regarding `COc1ccnc(CN2CCc3c(cc(Cn4ccnc4C)cc3-c3cn(C)nc3C(F)(F)F)C2=O)c1`, the t1/2 in [1] is 0.0533 h. In addition, the GI50 in [2] (Homo sapiens, MV4-11, 120 h) was determined as 24 nM; in data set [3] (Homo sapiens, K562, 120 h), 9500 nM; in [5] (Homo sapiens, MOLM-13, 120 h) it was 39 nM. Besides, in data set [16], the Ki is less than 0.02 nM. Moreover, in [6], the CLH stood at 220 µL/min/mg.
For the molecule `COc1cc(CN2CCc3c(cc(Cn4ccn(C)c4=N)cc3-c3ccc(F)cc3C)C2=O)cc(OC)c1`, the Ki in [17] was less than 0.02 nM. In addition, the GI50 in data set [2] (Homo sapiens, MV4-11, 120 h) was determined as 38 nM; in [3] (Homo sapiens, K562, 120 h), 8000 nM; in data set [5] (Homo sapiens, MOLM-13, 120 h), 78 nM. In addition, in data set [18], the Kinetic_solubility was 29 µM. Also, in [19], the permeability is listed as < 0.6 10^-6 cm/s. For the same molecule, the Activity result in [20], in data set [21] and in [22] was “Toxic” each time. This molecule also returned an AUC in [7] of 642 ng·h/mL. This molecule also came in with a Vdss in data set [8] of 16 L/kg. The CL entry in data set [23] was “Bld”.
In data set [24], `CC[C@@H]1NC(=O)[C@H](CCCNC(=N)NC)NC(=O)[C@](C)(NC(=O)C(C)C)CCNC(=O)[C@@H](c2ccccc2)NC1=O` registered a Ki of less than 1 nM.

The values are drawn from ChEMBL document CHEMBL5154875, “Discovery of Potent Orally Bioavailable WD Repeat Domain 5 (WDR5) Inhibitors Using a Pharmacophore-Based Optimization” (J Med Chem, 2022).
